Data reported in patent publication US20100105694A1, “SUBSTITUTED PYRAZINONE DERIVATIVES FOR USE AS A MEDICINE” (priority 2006, published 2010).
pIC50: −log10 of the molar value. Like-named read-outs stand apart in the source and are kept apart here.

Assays:
[1] = target: T1, human adrenergic-α2A receptor (Homo sapiens, UniProt P08913); experiment: Radioligand binding experiment for hα2A receptor ([3H]raulwolscine, CHO cell membranes); details: for IC50: [3H]raulwolscine 1 nM, membranes of CHO cells transfected with human α2A receptor, read-out: h-α2A pIC50 (converted)
T1 construct: expressed in transfected cells; host or cells: CHO cells, stably transfected; membranes
T1 sequence (P08913 1-465): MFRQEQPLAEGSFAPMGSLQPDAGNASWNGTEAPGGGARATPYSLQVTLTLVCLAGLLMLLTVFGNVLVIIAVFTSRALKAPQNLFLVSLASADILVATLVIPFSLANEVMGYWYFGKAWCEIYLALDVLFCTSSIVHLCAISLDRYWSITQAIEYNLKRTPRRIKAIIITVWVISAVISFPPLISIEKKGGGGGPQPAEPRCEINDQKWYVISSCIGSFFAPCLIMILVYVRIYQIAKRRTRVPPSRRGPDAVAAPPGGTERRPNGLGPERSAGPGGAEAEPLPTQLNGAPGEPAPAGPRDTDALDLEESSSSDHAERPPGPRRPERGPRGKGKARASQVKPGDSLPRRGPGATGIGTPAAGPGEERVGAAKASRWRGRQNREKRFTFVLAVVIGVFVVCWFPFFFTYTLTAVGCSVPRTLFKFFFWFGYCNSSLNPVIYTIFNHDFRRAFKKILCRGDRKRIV
Protocol: (§1) The interaction of a compound of Formula (I) with α2C-adrenoceptor receptors was assessed in in vitro radioligand binding experiments. In general, a low concentration of a radioligand with a high binding affinity for a particular receptor or transporter is incubated with a sample of a tissue preparation enriched in a particular receptor or transporter or with a preparation of cells expressing cloned human receptors in a buffered medium. During the incubation, the radioligand binds to the receptor or transporter. When equilibrium of binding is reached, the receptor bound radioactivity is separated from the non-bound radioactivity, and the receptor- or transporter-bound activity is counted. The interaction of the test compounds with the receptor is assessed in competition binding experiments. Various concentrations of the test compound are added to the incubation mixture containing the receptor- or transporter preparation and the radioligand. The test compound in proportion to its binding affinity and its concentration inhibits binding of the radioligand. The radioligand used for hα2A and hα2C receptor binding was [^3H]-raulwolscine.
(§2) CHO cells, stabile transfected with human adrenergic-α2A and α2C receptor cDNA, were cultured in Dulbecco's Modified Eagle's Medium (DMEM)/Nutrient mixture Ham's F12 (ratio 1:1) (Gibco, Gent-Belgium) supplemented with 10% heat inactivated fetal calf serum (Life Technologies, Merelbeke-Belgium) and antibiotics (100 IU/ml penicillin G, 100 μg/ml streptomycin sulphate, 110 μg/ml pyruvic acid and 100 μg/ml L-glutamine). One day before collection, cells were induced with 5 mM sodiumbutyrate. Upon 80-90% of confluence, cells were scraped in phosphate buffered saline without Ca^2+ and Mg^2+ and collected by centrifugation at 1500×g for 10 minutes. The cells were homogenised in Tris-HCl 50 mM using an Ultraturrax homogenizer and centrifuged for 10 minutes at 23,500×g. The pellet was washed once by resuspension and rehomogenization and the final pellet was resuspended in Tris-HCl, divided in 1 ml aliquots and stored at −70° C.
(§3) Membranes were thawed and re-homogenized in incubation buffer (glycylglycine 25 mM, pH 8.0). […] Filters were rinsed extensively with ice-cold rinsing buffer (Tris-HCl 50 mM pH 7.4). Filter-bound radioactivity was determined by scintillation counting in a Topcount (Packard, Meriden, Conn.) and results were expressed as counts per minute (cpm). Non-specific binding was determined in the presence of 1 μM oxymetazoline for the hα2A receptor and 1 μM spiroxatrine for hα2C receptors.
(§4) Data from assays in the presence of compound were calculated as a percentage of total binding measured in the absence of test compound. Inhibition curves, plotting percent of total binding versus the log value of the concentration of the test compound, were automatically generated, and sigmoidal inhibition curves were fitted using non-linear regression. The pIC50 values of test compounds were derived from individual curves.

[2] = target: T2, human adrenergic-α2C receptor (Homo sapiens, UniProt P18825); experiment: Radioligand binding experiment for α2C-adrenoceptor ([3H]raulwolscine, CHO cell membranes); details: [3H]raulwolscine 1 nM, membranes of CHO cells transfected with human α2C receptor; read-out: h-α2C pIC50 (converted)
T2 construct: expressed in transfected cells; host or cells: CHO cells, stably transfected; membranes
T2 sequence (P18825 1-462): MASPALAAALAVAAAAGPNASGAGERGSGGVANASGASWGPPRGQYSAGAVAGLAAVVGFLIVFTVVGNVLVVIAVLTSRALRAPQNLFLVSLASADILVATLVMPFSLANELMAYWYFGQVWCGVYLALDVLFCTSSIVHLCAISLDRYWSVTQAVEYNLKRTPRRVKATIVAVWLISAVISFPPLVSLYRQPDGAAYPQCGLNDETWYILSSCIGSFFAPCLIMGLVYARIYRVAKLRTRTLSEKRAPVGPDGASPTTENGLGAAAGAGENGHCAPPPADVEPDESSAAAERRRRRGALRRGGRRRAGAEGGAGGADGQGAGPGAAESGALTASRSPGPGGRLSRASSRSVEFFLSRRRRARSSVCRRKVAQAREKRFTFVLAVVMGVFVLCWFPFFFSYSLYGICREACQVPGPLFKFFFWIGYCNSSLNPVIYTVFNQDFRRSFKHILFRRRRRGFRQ
Protocol: as §1, §2, §3, §4

[3] = target: T3, 5HT-Transporter (Homo sapiens, UniProt P31645); experiment: Binding experiment for the 5HT-transporter ([3H]paroxetine, human platelet membranes); details: for IC50: [3H]paroxetine 0.5 nM, read-out: h-5HTT pIC50 (converted)
T3 construct: Human platelet membranes (Oceanix Biosciences Corporation, Hanover, Md., USA) were thawed; tissue Oceanix Biosciences Corporation; host or cells: human platelet membranes
Protocol: as §1
Human platelet membranes (Oceanix Biosciences Corporation, Hanover, Md., USA) were thawed, diluted in buffer (Tris-HCl 50 mM, 120 mM NaCl and 5 mM KCl) and quickly (max 3 s) homogenised with an Ultraturrax homogenizer. […] Incubation was stopped by rapid filtration of the incubation mixture over GF/B filters, pre-wetted with 0.1% polyethyleneamine, using a Filtermate196 harvester (Packard, Meriden, Conn.). Filters were rinsed extensively with ice-cold buffer and radioactivity on the filters was counted in a Topcount liquid scintillation counter (Packard, Meriden, Conn.). Data were expressed as cpm. Imipramine (at 1 μM final concentration) was used to determine the non-specific binding.
as §4

T3 sequence (P31645 whole entry): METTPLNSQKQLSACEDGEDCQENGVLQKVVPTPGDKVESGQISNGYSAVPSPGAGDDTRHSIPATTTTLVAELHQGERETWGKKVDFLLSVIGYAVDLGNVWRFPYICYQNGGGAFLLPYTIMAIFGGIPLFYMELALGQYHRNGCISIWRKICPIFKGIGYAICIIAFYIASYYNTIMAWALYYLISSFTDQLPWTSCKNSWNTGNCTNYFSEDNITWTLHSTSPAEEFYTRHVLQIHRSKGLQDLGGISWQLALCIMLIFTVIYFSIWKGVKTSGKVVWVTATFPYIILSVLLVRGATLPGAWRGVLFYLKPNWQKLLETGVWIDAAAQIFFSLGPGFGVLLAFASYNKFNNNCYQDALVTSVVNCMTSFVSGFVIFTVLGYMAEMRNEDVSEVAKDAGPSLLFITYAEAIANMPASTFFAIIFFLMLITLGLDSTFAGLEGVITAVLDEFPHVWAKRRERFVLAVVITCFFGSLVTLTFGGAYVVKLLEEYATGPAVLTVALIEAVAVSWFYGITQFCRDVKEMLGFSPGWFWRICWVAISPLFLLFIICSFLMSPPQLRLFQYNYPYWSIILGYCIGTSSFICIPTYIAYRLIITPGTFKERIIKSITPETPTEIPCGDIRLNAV

Compound | IC50 [1] [nM] | IC50 [2] [nM] | IC50 [3] [nM] | pIC50 [1] | pIC50 ([3]; h-5HTT pIC50, [3H]paroxetine 0.5 nM)
NCc1ccc(Cn2ccnc(NC3CCN(Cc4ccc(-c5ccccc5)cc4)CC3)c2=O)cc1 [Compound 1-1] | 251 | 251 | 501 |  | 
O=c1c(NC2CCN(Cc3ccc(-c4ccccc4)cc3)CC2)nccn1CCN1CCCCC1 [Compound 1-3] | 501 | 100 | 2510 |  | 
O=C1c2ccccc2C(=O)N1CCCn1ccnc(NC2CCN(Cc3ccc(-c4ccccc4)cc3)CC2)c1=O [Compound 1-4] | 631 | 126 | 158 |  | 
COC(=O)Cn1ccnc(NC2CCN(Cc3ccc(-c4ccccc4)cc3)CC2)c1=O [Compound 1-5] | 1260 | 316 | 5010 |  | 
O=c1c(NC2CCN(Cc3ccc(-c4ccccc4)cc3)CC2)nccn1Cc1ccccc1Br [Compound 1-6] | 794 | 501 | 398 |  | 
O=c1c(NC2CCN(Cc3ccc(-c4ccccc4)cc3)CC2)nccn1Cc1cccc(Br)c1 [Compound 1-7] | 1000 | 398 | 1000 |  | 
O=c1c(NC2CCN(Cc3ccc(-c4ccccc4)cc3)CC2)nccn1Cc1ccc(Br)cc1 [Compound 1-8] | 1000 | 794 | 631 |  | 
O=c1c(NC2CCN(Cc3ccc(-c4ccccc4)cc3)CC2)nccn1CC1CCCCO1 (stereo not drawn) [Compound 1-9] | 2000 | 631 | 316 |  | 
O=c1c(NC2CCN(Cc3ccc(-c4ccccc4)cc3)CC2)nccn1Cc1ccncc1 [Compound 1-10] | 3160 | 794 | > 10000 |  | 
O=c1c(NC2CCN(Cc3ccc(-c4ccccc4)cc3)CC2)nccn1Cc1ccc2ccccc2n1 [Compound 1-11] | 631 | 794 | 501 |  | 
CC(C)(C)OC(=O)NCCCn1ccnc(N2CCN(Cc3ccc(-c4ccccc4)cc3)CC2)c1=O [Compound 2-1] | 1260 | 631 | 1580 |  | 
O=C1c2ccccc2C(=O)N1CCCn1ccnc(N2CCN(Cc3ccc(-c4ccccc4)cc3)CC2)c1=O [Compound 2-2] | 1000 | 316 | 200 |  | 
NCc1ccc(Cn2ccnc(N3CCN(Cc4cccc(-c5ccccc5)c4)CC3)c2=O)cc1 [Compound 3-1] | 79.4 | 631 | 5010 |  | 
CC(C)(C)OC(=O)NCc1ccc(Cn2ccnc(N3CCN(Cc4cccc(-c5ccccc5)c4)CC3)c2=O)cc1 [Compound 3-2] | 200 | 251 | 6310 |  | 
O=c1[nH]ccnc1N1CCN(Cc2cccc(-c3ccccc3)c2)CC1 [Compound 3-3] | 316 | 316 | > 10000 |  | 
C=CCn1ccnc(N2CCN(Cc3cccc(-c4ccccc4)c3)CC2)c1=O [Compound 3-4] | 200 | 794 |  |  | 
O=c1c(N2CCN(Cc3cccc(-c4ccccc4)c3)CC2)nccn1CC=Cc1ccccc1 [Compound 3-6] | 794 | 794 | 5010 |  | 
O=c1c(N2CCN(Cc3cccc(-c4ccccc4)c3)CC2)nccn1Cc1ccc2ccccc2c1 [Compound 3-7] | 200 |  | 5010 |  | 

Compound | IC50 [1] [nM] | IC50 [2] [nM] | IC50 [3] [nM] | pIC50 [1] | pIC50 ([3]; h-5HTT pIC50, [3H]paroxetine 0.5 nM)
O=c1c(N2CCN(Cc3cccc(-c4ccccc4)c3)CC2)nccn1Cc1ccco1 [Compound 3-8] | 79.4 | 316 |  |  | 
O=C1c2ccccc2C(=O)N1CCCn1ccnc(N2CCN(Cc3cccc(-c4ccccc4)c3)CC2)c1=O [Compound 3-9] | 1580 | 794 | 794 |  | 
COc1ccc(-c2nnc(Cn3ccnc(N4CCN(Cc5cccc(-c6ccccc6)c5)CC4)c3=O)o2)cc1 [Compound 3-10] | 501 |  | 6310 |  | 
O=c1c(N2CCC(c3ccccc3)CC2)nccn1Cc1ccc2ccccc2c1 [Compound 4-1] | 501 | 501 | 3980 |  | 
NCc1ccc(Cn2ccnc(N3CCC(c4ccccc4)CC3)c2=O)cc1 [Compound 4-2] | 501 | 794 | > 10000 |  | 
CC(C)(C)OC(=O)NCc1ccc(Cn2ccnc(N3CCC(c4ccccc4)CC3)c2=O)cc1 [Compound 4-3] | 200 | 631 | > 10000 |  | 
NCc1ccc(Cn2ccnc(NC3CCN(Cc4ccccc4)CC3)c2=O)cc1 [Compound 5-1] |  |  | 7940 |  | 
NCc1ccc(Cn2ccnc(NC3CCN(Cc4ccccc4)CC3)c2=O)cc1 [Compound 5-2] | 1000 | 631 | > 10000 |  | 
NCc1ccc(CN(c2nccn(Cc3ccc(CN)cc3)c2=O)C2CCN(Cc3ccccc3)CC2)cc1 [Compound 5-3] | 1000 |  | > 10000 |  | 
O=c1c(NC2CCN(Cc3ccccc3)CC2)nccn1CCN1CCCCC1 [Compound 5-4] | 3160 |  | > 10000 |  | 
O=C1c2ccccc2C(=O)N1CCCn1ccnc(NC2CCN(Cc3ccccc3)CC2)c1=O [Compound 5-5] | 5010 | 398 | 3980 |  | 
NCCCn1ccnc(NC2CCN(CCc3ccccc3)CC2)c1=O [Compound 6-1] |  |  |  | 5.40 | < 5.00
NCc1ccc(Cn2ccnc(NC3CCN(CCc4ccccc4)CC3)c2=O)cc1 [Compound 6-2] |  |  | 3980 |  | 
NCc1ccc(Cn2ccnc(NC3CCN(CCc4ccccc4)CC3)c2=O)cc1 [Compound 6-3] | 1260 | 398 | > 10000 |  | 
NCCCn1ccnc(NC2CCN(CC(c3ccccc3)c3ccccc3)CC2)c1=O [Compound 9-1] | 1000 | 501 |  |  | 
CC(C)(C)OC(=O)NCc1ccc(Cn2ccnc(N3CCN(CCc4ccccc4)CC3)c2=O)cc1 [Compound 10-3] | 794 | 316 |  |  | 
O=C(Cn1ccnc(N2CCN(CCc3ccccc3)CC2)c1=O)c1ccccc1 [Compound 10-7] | 2000 |  | > 10000 |  | 
O=c1c(N2CCN(Cc3ccccc3)CC2)nccn1Cc1ccc2ccccc2c1 [Compound 10-9] | 126 | 794 |  |  | 
